{"source": "paper PMC11982498", "about": "(Redox Biology, 2025)", "key": {"[1]": {"test_system": "F-BCL-2(G4) (DNA, G4) AGGGGCGGGCGCGGGAGGAAGGGGGCGGGAGCGGGGCTG", "assay": "MST", "conditions": "K+ 100 mM; 50 mM Tris-HCl, pH 7.4; highest B14 concentration 50 μM"}, "[2]": {"test_system": "bio-ILPR (DNA, i motif) TGTCCCCACACCCCTGTCCCCACACCCCTGT", "assay": "SPR", "conditions": "K+ 100 mM; 20 mM MES, pH 5.5, 25 °C"}, "[3]": {"test_system": "BCL-2 gene transcription in SH-SY5Y cells", "assay": "Real-time RT-PCR in SH-SY5Y cells, BCL-2", "format": "cell-based, human", "procedure": "(§1) SH-SY5Y cells were treated with or without B14, and total RNA was subsequently isolated and purified. Reverse transcription was performed using a cDNA synthesis kit. The relative transcription levels of the genes were evaluated through quantitative real-time PCR using the SYBR Green-based method, as described in the Supplementary Date. Details regarding the primer sequences and the raw data can be found in Table S7 and Table S8.\n(§2) ^a -∆∆Ct = -[(Ct value of genes in treated sample - Ct value of genes in control) - (Ct value of β-actin in treated sample - Ct value of β-actin in control)]. ^b F: The relative expression fold.\nExperiment 1: SH-SY5Y cells were treated with different concentration of B14. The Ct values of BAX, VEGF, CMYC and BCL-2 were obtained.\n(§3) Total RNA was extracted from cells and mice liver tissue using RNAiso Plus (Takara, 9109, Japan). Following sample homogenization, chloroform was added, and the solution was allowed to have phase separation into an upper aqueous layer (containing RNA), an interphase, and a lower organic layer (containing DNA and proteins). RNA was precipitated from the aqueous phase using isopropanol, while DNA was precipitated from the aqueous-organic interphase using ethanol. Complementary DNA (cDNA) was synthesized using the One-Step RT-PCR Kit (Takara, Cat#639503, Japan).\n(§4) Quantitative real-time polymerase chain reaction (qRT-PCR) was performed using the 2× RealStar SYBR Mixture (GenStar, Cat# A301-10, Guangzhou, China) on a LightCycler 480 II real-time PCR system (Roche, USA). Data were analyzed using the 2^−ΔΔCt method. Actin served as the internal control, and relative mRNA levels were normalized accordingly."}, "[4]": {"test_system": "BCL-2 gene transcription in SH-SY5Y cells", "assay": "Real-time RT-PCR in 25 μM Aβ1-42 cell model, BCL-2", "format": "cell-based, human", "procedure": "as §1, §2\nExperiment 2: The Ct values of BCL-2 and Bax in 25 μM Aβ1-42 model with different concentration of B14.\nas §3, §4"}, "Aβ1-42 [5]": {"biological_target": "T1, Aβ1-42 (Homo sapiens, UniProt P05067)", "T1 construct": "Aβ1-42 was purchased from Gill Biochemicals Ltd (Shanghai, China); purchased Gill Biochemicals Ltd (Shanghai, China)", "T1 sequence (P05067 672-713 limits assumed)": "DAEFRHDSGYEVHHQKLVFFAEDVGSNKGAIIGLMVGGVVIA", "assay": "Dot blot of Aβ1-42 fibril aggregation", "format": "biochemical", "conditions": "20 μM compound, 24 h", "experimental": "After incubation at 37 °C for 24 h, 10 μL aliquots of 20 μM Aβ1-42 reaction mixtures were spotted onto nitrocellulose membranes. Membranes were blocked for 2 h with 5 % non-fat milk in TBS. After washing, membranes were incubated with the anti-Aβ fibril antibody (1:1,000, CST, USA) dissolved in TBS containing 3 % bovine serum albumin (BSA, Beyotime, Jiangsu, China) and 0.01 % Tween-20 (Solarbio, Beijing, China), and developed using an alkaline-phosphatase anti-rabbit secondary antibody (1:5,000, Proteintech, China). The bands were then detected using an enhanced chemiluminescence (ECL) kit (Millipore, USA).\nAfter incubation at 37 °C for 24h, 10 μL aliquots of 20 μM Aβ1-42 reactions were spotted onto nitrocellulose membranes. The membranes were blocked for 2 h with 5% non-fat milk in TBS. After washing, the membranes were incubated with the anti-Aβ fibril antibody (1:1000 dilution) dissolved in TBS containing 3% BSA and 0.01% Tween-20, and then developed using an alkaline-phosphatase antirabbit secondary antibody (1:5000 dilution). Invitrogen's Western Breeze Chemiluminescent kit was used to visualize the protein dots, and these dots were imaged using a FUJIFILM Luminescent Image Analyzer LAS-1000CH."}, "Aβ1-42 [6]": {"biological_target": "T1, Aβ1-42", "assay": "Transmission electron microscopy of Aβ1-42 fibrils", "format": "biochemical", "conditions": "20 μM compound, 72 h", "procedure": "(§5) TEM experiment was carried out following a published method without significant modification, and the Aβ1-42 solution (100 μM) was co-incubated with B14 (20 μM) or Curcumin (20 μM) at 37 °C for 72h. The samples were dropped to a carbon-coated grid, stained with 2 % phosphotungstic acid, and then dried at room temperature. The morphology of Aβ1-42 fiber was observed on a JEM-1200EX II transmission electron microscope (Jeol, Japan).\nas §5, with “The” for “TEM experiment was carried out following a published method without significant modification, and the”, “B14 solution” for “B14”, “2%” for “2 %”"}, "SH-SY5Y cells": {"test_system": "SH-SY5Y cells", "assay": "FITC Annexin V/PI cell apoptosis analysis in Aβ1-42 model", "format": "cell-based", "conditions": "25 μM Aβ1-42 induced model", "procedure": "The FITC Annexin V/PI apoptosis analysis was conducted using the FITC Annexin V/PI Apoptosis Detection Kit (Muti sciences, 70-AP101-100). Cells were treated with varying concentrations of B14 in a 6-well plate containing a cell model induced with 25 μM Aβ1-42. After digestion and resuspension in 500 μL binding buffer, samples were incubated with 5 μL of FITC Annexin V for 5 minutes, followed by the addition of 5 μL PI for further incubation at room temperature for 10 minutes. Flow cytometry analysis (Millipore, guava easy Cyte) was used to measure fluorescence intensity, and data analysis was performed using Flow jo V10."}, "[7]": {"test_system": "Aβ deposition in hippocampus of APP/PS1 mice", "assay": "Immunofluorescence of hippocampal Aβ deposition", "format": "in vivo", "conditions": "B14 10, 20, 40 mg/kg i.p. every other day", "source_text": "(§6) Five months old male APP/PS1 mice, weighing 25–33 g, were purchased from Guangdong Medical Laboratory Animal Center and housed in the Laboratory Animal Center of Sun Yat-sen University (Guangzhou, China) for experimentation. All procedures were approved by the Animal Care and Use Committee of Sun Yat-sen University and complied with legal requirements and national guidelines for the care and maintenance of laboratory animals (Approval No. SYSU-IACUC-2024-002032). The mice were housed in a specific pathogen-free environment with a controlled temperature of 22 ± 1 °C and a 12-h dark/light cycle. The mice were fed with a standard diet, and 30 mice were randomly divided into 6 groups (N = 5). Compound B14 was dissolved in saline and administered at doses of 10, 20, or 40 mg/kg. APP/PS1 male mice were grown until 6 months of age, and then injected intraperitoneally with compound B14 every other day for 60 days. Behavioral experiments were then conducted, and tissue specimens were collected for biochemical analysis."}, "APP/PS1 transgenic mice": {"test_system": "APP/PS1 transgenic mice", "assay": "TEM of hippocampus microstructure", "format": "in vivo", "conditions": "vs model group", "source_text": "as §6\nAfter the behavioral tests, the mice were anesthetized and perfused with 0.1 M pre-cooled phosphate-buffered saline for 5 min, followed by 4 % pre-cooled paraformaldehyde until the mice were stiff. The hippocampi were then extracted and fixed in 3 % pre-cooled glutaraldehyde solution for 6 h, cut into 0.5–1 mm^3 blocks, and post-fixed in 1 % osmium tetroxide for 60 min. […]"}}}
{"compound": "O=C(CCN1CCOCC1)Nc1ccc2c(c1)c(=O)c1cc(NC(=O)CCN3CCOCC3)ccc1n2-c1ccc2occc2c1", "note": "[Compound B14]", "values": [{"measurement": "KD", "setting": "[1]", "result": 59.75, "unit": "µM"}, {"measurement": "KD", "setting": "[2]", "result": "> 50", "unit": "µM"}, {"measurement": "-∆∆Ct, BCL-2", "setting": "[3]; 6.25 μM B14", "result": -0.31}, {"measurement": "F = 2^-∆∆Ct (relative expression fold), BCL-2", "setting": "[3]; 6.25 μM B14", "result": 1.23}, {"measurement": "-∆∆Ct, BCL-2", "setting": "[3]; 12.5 μM B14", "result": -0.73}, {"measurement": "F = 2^-∆∆Ct (relative expression fold), BCL-2", "setting": "[3]; 12.5 μM B14", "result": 1.65}, {"measurement": "-∆∆Ct, BCL-2", "setting": "[3]; 25 μM B14", "result": -1.11}, {"measurement": "F = 2^-∆∆Ct (relative expression fold), BCL-2", "setting": "[3]; 25 μM B14", "result": 2.15}, {"measurement": "-∆∆Ct, BCL-2", "setting": "[4]; 25 μM Aβ1-42 + 6.25 μM B14", "result": -0.05}, {"measurement": "F = 2^-∆∆Ct (relative expression fold), BCL-2", "setting": "[4]; 25 μM Aβ1-42 + 6.25 μM B14", "result": 1.04}, {"measurement": "-∆∆Ct, BCL-2", "setting": "[4]; 25 μM Aβ1-42 + 12.5 μM B14", "result": -0.48}, {"measurement": "F = 2^-∆∆Ct (relative expression fold), BCL-2", "setting": "[4]; 25 μM Aβ1-42 + 12.5 μM B14", "result": 1.40}, {"measurement": "-∆∆Ct, BCL-2", "setting": "[4]; 25 μM Aβ1-42 + 25 μM B14", "result": -0.82}, {"measurement": "F = 2^-∆∆Ct (relative expression fold), BCL-2", "setting": "[4]; 25 μM Aβ1-42 + 25 μM B14", "result": 1.76}, {"measurement": "formation of Aβ fibers (dot blot)", "setting": "Aβ1-42 [5]", "result": "reduced the formation of Aβ fibers and greatly decreased Aβ self-aggregation"}, {"measurement": "ultrastructure of Aβ1-42 fibers (TEM)", "setting": "Aβ1-42 [6]", "result": "formation of protofibrils or amorphous oligomers was significantly reduced"}, {"measurement": "apoptosis ratio", "setting": "SH-SY5Y cells", "result": "decreased in a dose-dependent manner"}, {"measurement": "hippocampal Aβ deposition", "setting": "[7]", "result": "significantly reduced in a dose-dependent manner"}, {"measurement": "hippocampal ultrastructure (myelin, synapses, mitochondria; TEM)", "setting": "APP/PS1 transgenic mice", "result": "the degree of mitochondrial damage was much reduced"}]}
